Publication PMC4624469 (Synapse (New York, N.Y.), 2015)
pKd, pKi: −log10 of the molar value. Values joined by “and” are separate entries in the source; they are usually repeats but may differ in a detail not shown here. Equal values may be shown once. “Also recorded” adds a separate entry of the source. Read-outs that look alike come from different tables or passages of the source.

What was measured:
D3R [1] = conditions: cited from earlier work
D3 Receptor [2] = conditions: read-out: Binding Affinity D3 Receptor, cited from earlier work
D2 Receptor = conditions: read-out: Binding Affinity D2 Receptor, cited from earlier work
D3 Receptor [3] = assay: Binding affinity of drugs at D3 receptor; conditions: for In Vitro D3 Selectivity: D2/D3 affinity ratio of the cited Table 1 values
[4] = system: dopamine D2 receptor (D2R)/D3R; type: binding, rabbit
[5] = system: dopamine D2 receptor (D2R)/D3R
[6] = Brain uptake / approximated brain concentration after intravenous injection; type: in vivo, rat; conditions: assuming uptake like 11C-5-OH-DPAT
[7] = target: D2R high-affinity (D2Rhigh) sites; conditions: read-out: Kd for D2Rhigh, 1996, cited from earlier work
[8] = system: dopamine D2 receptor (D2R)/D3R; assay: In vivo rat PET: drug-induced displacement of 18F-fallypride; conditions: for 18F-Fallypride displacement in vivo (change), Dorsal Striatum / 18F-Fallypride displacement in vivo (change), Ventral Striatum: 90 min post 18F-fallypride
[9] = reason for HPbCD vehicle; ref Xi et al., 2004; Gilbert et al. 2005; cited from earlier work
[10] = ref Mukherjee et al., 2000; cited from earlier work
D3R [11] = conditions: human brain; ref Tziortzi et al., 2011; cited from earlier work
D2RShort = conditions: read-out: D2RShort Ki; with 3H-spiperone; ref Stark et al., 2007; cited from earlier work
D2RLong = conditions: read-out: D2RLong Ki; with 3H-spiperone; ref Stark et al., 2007; cited from earlier work
[12] = system: dopamine D3R, D2Rhigh and D2Rlow receptors; assay: Approximate levels of 18F-fallypride bound to receptor subtypes; conditions: in vivo levels in striatum
D2R/D3R [13] = target: D2R/D3R (Mus musculus, UniProt P30728); assay: PET/CT of 18F-fallypride in wild type and D2R knock-out mice; type: in vivo; conditions: D2R knock-out mice, PET
Sequence of D2R/D3R (Mus musculus, UniProt P30728) (P30728 whole entry): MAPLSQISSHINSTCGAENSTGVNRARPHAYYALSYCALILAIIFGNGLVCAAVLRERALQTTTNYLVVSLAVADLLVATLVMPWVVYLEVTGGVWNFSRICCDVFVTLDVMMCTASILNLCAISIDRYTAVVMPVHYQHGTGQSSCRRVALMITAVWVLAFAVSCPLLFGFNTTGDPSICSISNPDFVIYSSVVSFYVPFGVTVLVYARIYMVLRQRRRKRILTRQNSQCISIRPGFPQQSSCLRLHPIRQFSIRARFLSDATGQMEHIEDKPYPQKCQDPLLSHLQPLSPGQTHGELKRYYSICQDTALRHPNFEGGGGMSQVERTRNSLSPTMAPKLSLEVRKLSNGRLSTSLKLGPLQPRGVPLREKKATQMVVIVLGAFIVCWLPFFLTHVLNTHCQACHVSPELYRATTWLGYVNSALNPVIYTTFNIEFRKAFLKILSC

D2R/D3R [14] = assay: as above; type: in vivo
[15] = In Vitro and In Vivo PET, ref Mukherjee et al., 2000, Shi et al., 2004
[16] = intravenous dose of 0.015 mg/kg
[17] = rat sagittal slices, 10 µM drug, dorsal and ventral striata
[18] = BPND KO/BPND WT, mice, listed as 18F-fallypride
[19] = wild-type mice, PET, cerebellum reference

For `CCCN(CCCCC[18F])C1CCc2c(O)cccc2C1` (racemic) [18F-5-OH-FPPAT, (R,S)-2-(N-propyl-N-(5-^18F-fluoropentyl)-5-hydroxyaminotetralin], the “Findings (receptor subtype binding)” value (D3R [1]; [15]) is listed as “D2Rhigh and some D3R (yet to be confirmed)”.
For `CCCN1CCO[C@@H]2c3cc(O)ccc3CC[C@H]21` [PHNO], the pKi (D3 Receptor [2]; ref Willeit et al., 2006) is listed as 9.80, the pKi (D2 Receptor; ref Willeit et al., 2006) is listed as 8.07 and the “In Vitro D3 Selectivity” value (D3 Receptor [3]) is listed as 53.
For `CCCN(CCC)[C@@H]1CCc2ccc(O)cc2C1` [(R)-7-OH-DPAT], the “18F-fallypride binding reduced by” value ([4]; 10 nM drug, rabbit nucleus accumbens) was 10–15%, the “18F-fallypride binding reduced by” value ([4]; 10 µM drug, all regions in rabbit) was at least 85% and the 18F-fallypride displaced ([4]; rabbit sagittal slices, lower doses, olfactory tubercle and nucleus accumbens) was “approx. 15%”. For the same compound, the “18F-fallypride binding reduced by” value ([5]; 10 nM drug, rat ventral striatum (VST) and dorsal striatum (DST)) was 10–15%, the “18F-fallypride binding reduced by” value ([5]; 10 µM drug, all regions in rat) was at least 85% and the 18F-fallypride displaced ([5]; rat horizontal slices, 100 nM drug) was “approx. 30%”. The 18F-fallypride displaced ([5]; rat horizontal slices, 10 µM drug) was “exceeded 80%”, the 18F-fallypride displaced ([5]; rat horizontal slices, micromolar concentration) was “about 60%” and the 18F-fallypride displaced ([5]; rat sagittal slices, 10 µM drug, dorsal striatum) was “approx. 75%”. The Approximated brain concentration ([6]; dose of 1.88 mg/kg) was “approximately 100 nM”, the Approximated brain concentration [6, 16] was 0.6 to 1 nM and the pKd ([7]; ref Gonzalez and Sibley, 1995, van Vliet et al.) was 7.25 and 7.05. For the same compound, the “18F-Fallypride displacement in vivo (change), Dorsal Striatum” value ([8]; 0.015 mg/kg iv, rat PET) was −22% and −21.5%, the “18F-Fallypride displacement in vivo (change), Ventral Striatum” value ([8]; 0.015 mg/kg iv, rat PET) was −29% and −28.7% and the “Nondisplaced 18F-Fallypride” value ([8]; 0.015 mg/kg iv, rat PET) was 71 to 78%. For the same compound, the “displacement of 18F-fallypride in the ventral striatum” value ([8]; 0.015 mg/kg iv, rat PET) was 29%, the “dorsal striatum 18F-fallypride binding reduced by” value ([8]; 0.015 mg/kg iv, rat PET) was 22% and the “18F-Fallypride displacement in vivo (change), Dorsal Striatum” value ([8]; 0.06 mg/kg iv, rat PET) was −32.9%. The “18F-Fallypride displacement in vivo (change), Ventral Striatum” value ([8]; 0.06 mg/kg iv, rat PET) was −43.4%, the “Nondisplaced 18F-Fallypride” value ([8]; 0.06 mg/kg iv, rat PET) was 57 to 67% and the “18F-Fallypride displacement in vivo (change), Dorsal Striatum” value ([8]; 0.38 mg/kg iv, rat PET) was −67.9%. The “18F-Fallypride displacement in vivo (change), Ventral Striatum” value ([8]; 0.38 mg/kg iv, rat PET) was −75%, the “Nondisplaced 18F-Fallypride” value ([8]; 0.38 mg/kg iv, rat PET) was 25 to 32% and the “18F-Fallypride displacement in vivo (change), Dorsal Striatum” value ([8]; 1.88 mg/kg iv, rat PET) was −58% and −57.6%. For the same compound, the “18F-Fallypride displacement in vivo (change), Ventral Striatum” value ([8]; 1.88 mg/kg iv, rat PET) was −77% and −76.7%, the “Nondisplaced 18F-Fallypride” value ([8]; 1.88 mg/kg iv, rat PET) was 23 to 42% and the “displacement of 18F-fallypride in the ventral striatum” value ([8]; 1.88 mg/kg iv, rat PET) was 77%. For the same compound, the “dorsal striatum 18F-fallypride binding reduced by” value ([8]; 1.88 mg/kg iv, rat PET) was 58%, the “18F-fallypride displaced in vivo” value ([8]; dose of 1.88 mg/kg) was “greater than 50%” and the “18F-fallypride displaced in vivo” value [8, 16] was “approximately 20%”.
In the case of `CCCN(CCC)C1CCc2ccc(O)cc2C1` (centres unmarked) [7-OH-DPAT], the pKd ([7]; ref van Vliet et al.) is given as 7.25 and 7.05.
In the case of `O=C(NCCCCN1CCN(c2cccc(Cl)c2Cl)CC1)c1ccc2c(c1)Cc1ccccc1-2` [NGB 2904], the Water solubility [9] is given as “low water solubility”, the 18F-fallypride displaced [5, 17] is given as 40 to 50% and the pKi (D3 Receptor [2]; ref Heiderbreder et al., 2010) is given as 8.70. The pKi (D2 Receptor; ref Heiderbreder et al., 2010) was 6.95, the “D3R selectivity (over D2R)” value (D3 Receptor [3]) was over 50 fold and the “In Vitro D3 Selectivity” value (D3 Receptor [3]) was 56. For the same compound, the “Effect on 18F-fallypride binding in dorsal and ventral striatum” value ([8]; 4 mg/kg iv at 90 min, rat PET) was “no measureable reduction; also recorded: not evident”, the “18F-Fallypride displacement in vivo (change), Dorsal Striatum” value ([8]; 4.0 mg/kg iv in HPbCD, rat PET) was “Not significant” and the “18F-Fallypride displacement in vivo (change), Ventral Striatum” value ([8]; 4.0 mg/kg iv in HPbCD, rat PET) was “Not significant”. The “Nondisplaced 18F-Fallypride” value ([8]; 4.0 mg/kg iv, rat PET) was 100%.
In the case of `CCCN([11CH2]CC)C1CCc2c(O)cccc2C1` (racemic) [11C-5-OH-DPAT, 11C-(R,S)-5-hydroxy-2-(di-n-propylamino)tetralin], the “Uptake in the rat brain” value [10] is given as “approximately 1 % of the injected dose” and the “Findings (receptor subtype binding)” value (D3R [1]; [15]) is given as “D2Rhigh and some D3R (yet to be confirmed)”.
In the case of `CCCN(CCC)C1CCc2ccc(O)cc2C1` (centres unmarked) [3H-7-OH-DPAT], the “Findings (receptor subtype binding)” value (D3R [1]; In Vitro, ref Gonzalez and Sibley, 1995) is listed as “D3R binding at low concentrations and D2Rhigh at higher concentrations”.
For `CC[11CH2]N1CCO[C@@H]2c3cc(O)ccc3CCC21` (some centres unmarked) [11C-PHNO], the “D3R binding fraction, substantia nigra and hypothalamus” value (D3R [11]) is listed as 100% and the “D3R binding fraction, ventral striatum” value (D3R [11]) is listed as 26%.
For `C=CCN1CCC[C@H]1CNC(=O)c1cc(CCCF)cc(OC)c1OC` [Fallypride], the pKi (D2 Receptor; ref Stark et al., 2007) is given as 8.68.
In the case of `COc1ccccc1N1CCN(CCCCNC(=O)c2ccc3ccccc3c2)CC1` [BP 897], the Water solubility [9] is given as “low water solubility”, the 18F-fallypride displaced [5, 17] is given as “more than 90%” and the “18F-fallypride displaced, dorsal and ventral striatum” value ([8]; 3 mg/kg iv at 90 min post 18F-fallypride, rat PET) is given as 24–29%. The “Effect on 18F-fallypride binding in DSTR and VSTR” value ([8]; 3.2 mg/kg at 90 min, rat PET) was “visible reduction”, the “18F-Fallypride displacement in vivo (change), Dorsal Striatum” value ([8]; 3.2 mg/kg iv in HPbCD, rat PET) was −29.3% and the “18F-Fallypride displacement in vivo (change), Ventral Striatum” value ([8]; 3.2 mg/kg iv in HPbCD, rat PET) was −24.0%. The “Nondisplaced 18F-Fallypride” value ([8]; 3.2 mg/kg iv, rat PET) was 70 to 76% and the “18F-fallypride displaced in vivo” value ([8]; rat PET, striatum, dose not given at place) was over 20%.
In the case of `CCCN(CC=C[125I])C1CCc2ccc(O)cc2C1` (centres unmarked) [125I-7-OH-PIPAT], the “Findings (receptor subtype binding)” value (D3R [1]; In Vitro, ref Mugnani et al., 2013, Gurevich and Joyce, 1999) is listed as “D3R binding; D2Rhigh binding not known”.
For `C=CCN1CCC[C@H]1CNC(=O)c1cc(CCC[18F])cc(OC)c1OC` [18F-Fallypride, (S)-N-[(1-allyl-2-pyrrolidinyl)methyl]-5-(3-[18F]fluoropropyl)-2,3-dimethoxybenzamide], the pKi (D2RShort) is given as 8.68, the pKi (D2RLong) is given as 8.66 and the “Level of 18F-fallypride bound to D2Rhigh” value [12] is given as about 60%. The “Level of 18F-fallypride bound to D2Rlow” value [12] was about 20%, the “Level of 18F-fallypride bound to D3R” value [12] was about 20% and the “BPND KO, Hypothalmus” value (D2R/D3R [13]) was 1.36. For the same compound, the “BPND KO, Substantia nigra/ Ventral tegmental area” value (D2R/D3R [13]) was 0.81, the “BPND KO, Ventral Striatum” value (D2R/D3R [13]) was 0.55 and the “BPND KO, Dorsal Striatum” value (D2R/D3R [13]; small negative values listed as 0) was 0. The “fD3 (fraction of total binding to D3 receptors), Dorsal Striatum” value (D2R/D3R [14]; BPND KO/BPND WT, mice) was 0%, the “fD3 (fraction of total binding to D3 receptors), Hypothalmus” value (D2R/D3R [14]; BPND KO/BPND WT, mice) was 98.5% and the “fD3 (fraction of total binding to D3 receptors), Substantia nigra/ Ventral tegmental area” value (D2R/D3R [14]; BPND KO/BPND WT, mice) was 99.2%. For the same compound, the “fD3 (fraction of total binding to D3 receptors), Ventral Striatum” value (D2R/D3R [14]; BPND KO/BPND WT, mice) was 15.6%, the “fD3 (fraction of total binding to D3 receptors), Hypothalmus” value (D2R/D3R [14]; [18]) was ~ 100% and the “fD3 (fraction of total binding to D3 receptors), Substantia nigra/ Ventral tegmental area” value (D2R/D3R [14]; [18]) was ~ 100%. For the same compound, the “fD3 (fraction of total binding to D3 receptors), Ventral Striatum” value (D2R/D3R [14]; [18]) was 15%, the “BPND WT, Dorsal Striatum” value (D2R/D3R [14]; [19]) was 5.30 and the “BPND WT, Hypothalmus” value (D2R/D3R [14]; [19]) was 1.38. For the same compound, the “BPND WT, Substantia nigra/ Ventral tegmental area” value (D2R/D3R [14]; [19]) was 0.81 and the “BPND WT, Ventral Striatum” value (D2R/D3R [14]; [19]) was 3.51.
